This is an account of results in patent US20110028509A1, “Sulfonamides” (MERCK SERONO SA, priority 2008, published 2011).

Common to all, as to assay type: cell-based
Assay [1] deals with T1, CXCR3 (Homo sapiens, UniProt P49682).
T1 sequence (P49682 1-368): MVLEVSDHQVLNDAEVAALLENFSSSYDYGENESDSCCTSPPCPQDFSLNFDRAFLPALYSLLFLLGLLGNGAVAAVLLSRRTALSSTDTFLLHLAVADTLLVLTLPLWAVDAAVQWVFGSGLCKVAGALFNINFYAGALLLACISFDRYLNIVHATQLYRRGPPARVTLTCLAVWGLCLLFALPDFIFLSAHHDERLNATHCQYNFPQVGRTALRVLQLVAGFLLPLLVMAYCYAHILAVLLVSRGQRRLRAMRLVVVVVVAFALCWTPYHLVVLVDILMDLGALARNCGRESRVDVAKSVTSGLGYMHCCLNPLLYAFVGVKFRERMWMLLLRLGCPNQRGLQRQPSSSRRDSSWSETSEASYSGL
Briefly: Chemotaxis assay IP10, L1.2 recombinant cells expressing hCXCR3. The conditions noted are these: L1.2 hCXCR3 cells, IP10 around 0.3 nM, 4 hours. As to the method: (§1) Human CXCR3 cDNA was amplified by PCR from a human cells cDNA library (Clontech) and subcloned into pcDNA3.1 (Invitrogen). Murine pre-B L1.2 cells were transfected with hCXCR3-pcDNA3.1 and were grown at 37° C., 5% CO2 in RPMI 1640 medium (Invitrogen, USA) supplemented with 5% heat inactivated fetal calf serum (Cancerra, Australia), 2 mM glutamine (Invitrogen), 50 units ml−1 penicillin, 50 μml−1 streptomycin. Stable transfectant clonal populations were selected using 800 μg/ml geneticin.
L1.2 recombinant cells expressing the receptor hCXCR3 were maintained in culture in RPMI 1640 (invitrogen), 5% Foetal Bovine Serum (invitrogen), 2 mM glutamine(invitrogen), 50 u/ml penicillin/streptomycin (invitrogen), at 37° C.-5% CO2—in an H2O saturated incubator. In order to stimulate the expression of the receptor, cells were incubated overnight with 5 mM butyric acid (Sigma)
This mix of cells/compounds was then incubated at 37° C.-5% CO2—in an H2O saturated incubator during 30 minutes. Cells were then dispensed as a drop on each corresponding wells of the chemotaxis system. Cell migration was then induced at 37° C.-5% CO2—in an H2O incubator during 4 hours. Filters were then removed and cells that had migrated were transferred in a black plate (Costar). The plates were stored overnight at −80° C. Cell migration ratio was calculated using the cyquant dye (Molecular Probes-C7026).

For assay [2], the target named is T1, CXCR3. Briefly: CXCR3 Ca2+ mobilization (FLIPR), stable hCXCR3-CHO cell line, I-TAC stimulated. The note with it: hCXCR3-CHO cells, I-TAC 100 nM stimulated Ca2+ response; read-out: Ca-ITAC. On the set-up: host or cells: CHO cells stably expressing hCXCR3. In outline: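 CHO cells stably expressing hCXCR3, grown 18 hours after plating, loaded with calcium indicator dye 60 minutes; compounds equilibrated 20 minutes at room temperature. Fluorescence change evoked by 100 nM I-TAC read on FLIPR; activity expressed as percent of I-TAC response without compound (100%).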

Assay [3] concerns the target T1, CXCR3. Briefly: Chemotaxis assay ITAC (CXCL11), L1.2-CXCR3 cells. Also on record: expressed in transfected cells. The conditions noted are these: 1 nM CXCL11 (I-TAC), 4 hours. The protocol: as §1
L1.2-CXCR3 cells were grown for 24 hours at 0.5×10^6 cells/ml in chemotaxis medium containing 5 mM butyric acid (Sigma). Compounds were on one hand mixed with 1 nM of CXCL11 (I-TAC) in phenol-red free RPMI 1640 (invitrogen) supplemented with 5% fetal bovine serum in presence of 1% DMSO. The CXCL11/compounds mixture was then added to lower chambers of chemotaxis 96 well microplates (neuroprobe), and framed filters ([…] pore size) were put on top of the lower chambers. Compounds were on the other hand mixed with L1.2 CXCR3 cells and incubated in chemotaxis medium at 1.5×10^6 cells/ml in presence of 1% DMSO at 37° C., 5% CO2 for 30 minutes. Cells/compounds mixture was then added on top of the frame filters and migration was performed at 37° C., 5% CO2 for 4 hours. The number of migrated cells in the bottom chamber was determined using the CyQuant GR dye (Molecular Probe), according to the manufacturer.

pIC50: −log10 of the molar value.

By IC50 is commonly meant the concentration that inhibits the measured activity by half. In the case of `O=S(=O)(c1ccc(Cl)cc1)N(Cc1ccc(-c2nnn[nH]2)cc1)Cc1cccc(Cl)c1` [Example 21, 4-chloro-N-(3-chlorobenzyl)-N-[4-(1H-tetrazol-5-yl)benzyl]benzenesulfonamide], the IC50 in assay [1] amounted to 1.29 µM. `O=C(NCc1cccc(Cl)c1)c1ccc(CN(Cc2ccccc2)S(=O)(=O)c2ccc(Cl)cc2)cc1` [Example 1, 4-({benzyl[(4-chlorophenyl)sulfonyl]amino}methyl)-N-(3-chlorobenzyl)benzamide]: the concentration for half-maximal inhibition (IC50) in assay [1] turned out to be 1.29 µM. Consider `O=S(=O)(c1ccc(Cl)cc1)N(Cc1ccc(F)cc1)Cc1ccc(-c2nnn[nH]2)cc1` [Example 22, 4-chloro-N-(4-fluorobenzyl)-N-[4-(1H-tetrazol-5-yl)benzyl]benzenesulfonamide], for which the IC50 in assay [1] stood at 2.56 µM. With `COc1ccc(CN(Cc2ccc(-c3nnn[nH]3)cc2)S(=O)(=O)c2ccc(Cl)cc2)cc1` [Example 24, 4-Chloro-N-(4-methoxy-benzyl)-N-[4-(1H-tetrazol-5-yl)-benzyl]-benzenesulfonamide], the IC50 in assay [1] is 0.885 µM. Same read-out and setting: with `O=C(NC[C@@H]1CCCO1)c1ccc(CN(Cc2ccccc2)S(=O)(=O)c2ccc(Cl)cc2)cc1` [Example 3, 4-({benzyl[(4-chlorophenyl)sulfonyl]amino}methyl)-N-[(2S)-tetrahydrofuran-2-ylmethyl]benzamide] the figure was 2.27 µM; with `O=C(NS(=O)(=O)Cc1cccc([N+](=O)[O-])c1)c1ccc(CN(Cc2ccccc2)S(=O)(=O)c2ccc(Cl)cc2)cc1` [Example 15, 4-({benzyl[(4-chlorophenyl)sulfonyl]amino}methyl)-N-[(3-nitrobenzyl)sulfonyl]benzamide], 2.42 µM; with `O=S(=O)(c1ccc(Cl)cc1)N(Cc1ccc(-c2nnc(O)o2)cc1)Cc1ccccn1` [Example 19, 4-chloro-N-[4-(5-hydroxy-1,3,4-oxadiazol-2-yl)benzyl]-N-(pyridin-2-ylmethyl)benzene sulfonamide], 0.695 µM. `COc1ccc(S(=O)(=O)NC(=O)c2ccc(CN(Cc3ccccn3)S(=O)(=O)c3ccc(Cl)cc3)cc2)cc1` [Example 14, 4-{[[(4-chlorophenyl)sulfonyl](pyridin-2-ylmethyl)amino]methyl}-N-[(4-methoxyphenyl)sulfonyl]benzamide]: in assay [1], the IC50 turned out to be 3.87 µM. The same measure, in the same setting: the figure for `COc1cccc(CN(Cc2ccc(-c3nnn[nH]3)cc2)S(=O)(=O)c2ccc(Cl)cc2)c1` [Example 23, 4-chloro-N-(3-methoxybenzyl)-N-[4-(1H-tetrazol-5-yl)benzyl]benzene sulfonamide] is 1.46 µM; for `O=C(NCCc1cccc([N+](=O)[O-])c1)c1ccc(CN(Cc2ccccc2)S(=O)(=O)c2ccc(Cl)cc2)cc1` [Example 4, 4-({benzyl[(4-chlorophenyl)sulfonyl]amino}methyl)-N-[2-(3-nitrophenyl)ethyl]benzamide] it is 2.45 µM.

As for `COC(=O)[C@@H](NC(=O)c1ccc(CN(Cc2ccccn2)S(=O)(=O)c2ccc(Cl)cc2)cc1)c1ccccc1` [Example 342], the figures for the pIC50 in assay [2] and in assay [3] were 6.10 and 7.27, respectively. `O=S(=O)(c1ccc(Cl)cc1)N(Cc1ccc(-c2nnn[nH]2)cc1)Cc1nccc2ccccc12` [Example 74, 4-chloro-N-(isoquinolin-1-ylmethyl)-N-[4-(2H-tetrazol-5yl)benzyl]benzene sulfonamide]: the pIC50 was 5.70 in assay [2] and 6.18 in assay [3]. The like results for `COC(=O)[C@@H](Cc1ccccc1)NC(=O)c1ccc(CN(Cc2ccccn2)S(=O)(=O)c2ccc(Cl)cc2)cc1` [Example 145] were, in that order, 5.70 and 6.40. For `O=C(Nc1ccc(CN(Cc2ccccn2)S(=O)(=O)c2ccc(Cl)cc2)cc1)C(O)c1ccccc1` (centres unmarked) [Example 170] the same measures were 6.40 and 7.30.

As to `CCOc1ccc(S(=O)(=O)N(Cc2ccc(C(=O)NC3(c4ccccc4)CC3)c(OC)c2)Cc2ccccn2)cc1` [Example 189], the pIC50 in assay [2] was 5.70; in assay [3], 6.55.

Regarding `O=C(NC(C(=O)O)c1ccc(F)c(F)c1)c1ccc(CN(Cc2ccccn2)S(=O)(=O)c2ccc(Cl)cc2)cc1` (centres unmarked) [Example 149, (4-{[(4-Chloro-benzenesulfonyl)-pyridin-2-ylmethyl-amino]-methyl}-benzoylamino)-(3,4-difluoro-phenyl)-acetic acid], the pIC50 is 7.00 in assay [2] and 7.14 in assay [3]. On to `COc1ccc(S(=O)(=O)N(Cc2ccc(C(=O)NCc3cccc(Cl)c3)cc2)Cc2cccnc2)cc1` [Example 9, N-(3-chlorobenzyl)-4-{[[(4-methoxyphenyl)sulfonyl](pyridin-3-ylmethyl)amino]methyl}benzamide], for which the IC50 in assay [1] turned out to be 1.15 µM. Take `CCOc1ccc(S(=O)(=O)N(Cc2ccc(C(=O)O)c(F)c2)Cc2ccccn2)cc1` [Example 66, 4-{[(4-Ethoxy-benzenesulfonyl)-pyridin-2-ylmethyl-amino]-methyl}-2-fluoro-benzoic acid]: the pIC50 in assay [2] is 5.70; in assay [3], 5.34.

Take `CCOc1ccc(S(=O)(=O)N(Cc2ccc(C(=O)N[C@H]3[C@@H]4CN(C(=O)OC(C)(C)C)C[C@@H]43)cc2)Cc2cccnc2)cc1` [Example 94]: the values for the pIC50 in assay [2] and in assay [3] were 5.70 and 6.59, respectively. In the case of `CC(=O)N1C[C@@H]2[C@H](C1)[C@H]2NC(=O)c1ccc(CN(Cc2ccccn2)S(=O)(=O)c2ccc(C#N)cc2)cc1` [Example 119], the pIC50 was 6.06 in assay [2] and 5.67 in assay [3]. The like results for `C[C@@H](c1ccc(NC(=O)C2(c3ccccc3)CC2)cc1)N(Cc1ccccn1)S(=O)(=O)c1ccc(C#N)cc1` [Example 167] were, in that order, 6.60 and 5.71. Take `Cc1nc(CN(Cc2ccc(-c3nnn[nH]3)cc2)S(=O)(=O)c2ccc(Cl)cc2)no1` [Example 73, 4-chloro-N-(5-methyl-1,2,4-oxadiazol-3-ylmethyl)-N-[4-(2H-tetrazol-5yl)benzyl]benzene sulfonamide]: the pIC50 in assay [2] was 4.92; in assay [3] it was 5.49. The like results for `N#Cc1ccc(S(=O)(=O)N(Cc2ccc(C(=O)NCc3cccnc3)cc2)Cc2ccccn2)cc1` [Example 136] were, in that order, 5.10 and 6.03. `CC(=O)NC(C(=O)Nc1ccc(CN(Cc2ccccn2)S(=O)(=O)c2ccc(Cl)cc2)cc1)c1ccccc1` (centres unmarked) [Example 185]: the pIC50 is 6.52 in assay [2] and 7.52 in assay [3]. The like results for `N#Cc1ccc(S(=O)(=O)N(Cc2ccc(C(=O)NCCc3ccc(S(N)(=O)=O)cc3)cc2)Cc2ccccn2)cc1` [Example 99] were, in that order, 5.84 and 5.99. On to `O=C(NC1(c2ccc(Cl)cc2)CC1)c1ccc(CN(Cc2ccccn2)S(=O)(=O)c2ccc(Cl)cc2)cc1` [Example 125], for which the pIC50 was 6.40 in assay [2] and 6.46 in assay [3]. For `CC(C)(C)OC(=O)N1C[C@@H]2[C@H](C1)[C@H]2NC(=O)c1ccc(CN(Cc2ccccn2)S(=O)(=O)c2ccc(Cl)cc2)cc1` [Example 105] the same measures were 7.70 and 7.15. For `NC(C(=O)Nc1ccc(CN(Cc2ccccn2)S(=O)(=O)c2ccc(Cl)cc2)cc1)c1ccccc1` (centres unmarked) [Example 181] the same measures were 6.82 and 7.03. The like results for `CCOc1ccc(S(=O)(=O)N(Cc2ccc(C(=O)NC3(c4ccc(Cl)cc4)CC3)cc2)Cc2ccccn2)cc1` [Example 127] were, in that order, 6.30 and 6.42.
